Experimental findings from US12545660B2, “Crystalline forms of a farnesoid X receptor agonist” (ELI LILLY AND COMPANY, priority 2020, dated 2026) are described below.

For one data set, the target named is T1, hFXR (Homo sapiens, UniProt Q96RI1).
T1 construct: expressed in transfected cells; host or cells: CV-1 cells
T1 sequence (Q96RI1 1-486): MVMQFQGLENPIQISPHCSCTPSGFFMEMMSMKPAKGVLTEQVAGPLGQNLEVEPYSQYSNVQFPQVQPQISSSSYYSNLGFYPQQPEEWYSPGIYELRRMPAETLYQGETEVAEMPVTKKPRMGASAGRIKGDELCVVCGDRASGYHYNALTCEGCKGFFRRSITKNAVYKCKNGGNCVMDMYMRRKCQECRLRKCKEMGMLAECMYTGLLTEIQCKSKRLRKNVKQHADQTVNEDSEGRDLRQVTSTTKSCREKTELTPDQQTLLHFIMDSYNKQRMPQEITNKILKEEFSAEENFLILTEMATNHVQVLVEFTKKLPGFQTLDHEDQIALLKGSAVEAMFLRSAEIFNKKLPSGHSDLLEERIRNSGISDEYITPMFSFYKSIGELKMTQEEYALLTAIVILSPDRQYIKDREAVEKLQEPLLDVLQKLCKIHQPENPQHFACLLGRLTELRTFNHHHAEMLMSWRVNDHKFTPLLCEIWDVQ
T1 sequence (P19793 1-462 partner): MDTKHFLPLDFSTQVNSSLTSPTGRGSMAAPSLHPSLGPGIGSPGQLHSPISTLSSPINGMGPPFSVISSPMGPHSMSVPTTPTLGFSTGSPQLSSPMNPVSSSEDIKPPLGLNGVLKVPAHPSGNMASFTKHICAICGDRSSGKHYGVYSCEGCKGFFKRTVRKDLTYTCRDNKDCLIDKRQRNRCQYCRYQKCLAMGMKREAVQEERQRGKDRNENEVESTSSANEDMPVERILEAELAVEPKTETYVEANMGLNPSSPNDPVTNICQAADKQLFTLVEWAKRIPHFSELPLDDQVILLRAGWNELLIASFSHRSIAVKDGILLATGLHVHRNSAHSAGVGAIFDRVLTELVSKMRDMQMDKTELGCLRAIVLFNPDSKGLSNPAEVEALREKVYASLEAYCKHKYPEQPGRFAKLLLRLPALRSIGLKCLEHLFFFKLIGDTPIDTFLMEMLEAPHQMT
The experiment in a line: In Vitro FXR Assay (TK). It is filed as cell-based. Conditions: CV-1 cells transfected with hFXR, hRXR, TK-ECRE-luc and pCMX-YFP; incubated 18 hrs; luminescence. As to the method:
Example 10: In Vitro FXR Assay (TK)
CV-1 were seeded at a density of 2,000,000 cells in a T175 flask with DMEM+10% charcoal double-stripped FBS and incubated at 37° C. in 5% CO2 for 18 h (O/N).
After 18 h of incubation, the medium in the T175 flask was changed with fresh DMEM+10% charcoal super-stripped serum. In a polypropylene tube, 2500 μL OptiMEM (Life Technologies, Cat #31985-062) was combined with expression plasmids for hFXR, hRXR, TK-ECRE-luc and pCMX-YFP. The tube was then briefly vortexed and incubated at room temperature for 5 minutes. Transfection reagent (X-tremeGENE HP from Roche, Cat #06 366 236 001) was added to the OptiMEM/plasmid mixture vortexed and incubated at room temperature for 20 minutes. Following incubation, the transfection reagent/DNA mixture complex was added to cells in the T175 flask and the cells were incubated at 37° C. in 5% CO2 for 18 h (O/N).
Compound 1 was serially diluted in DMSO and added to transfected CV-1 cells. The cells were then incubated for 18 hrs. The next day cells were lysed and examined for luminescence. Compound 1 TK hFXR: EC50≤0.01 μM.

Data set [1] in a line: Dynamic Vapor Sorption (DVS). It is filed as physicochemical. The conditions noted are these: for water content at 95% RH (DVS) / hygroscopicity (DVS): 25° C.; for water content at 95% RH (DVS): two complete sorption/desorption cycles; for hygroscopicity (DVS): DVS isotherm. As to the method: Sorption isotherms were obtained using a SMS DVS Intrinsic moisture sorption analyzer, controlled by DVS Intrinsic Control software v1.0.1.2 (or v1.0.1.3). The sample temperature was maintained at 25° C. by the instrument controls. The humidity was controlled by mixing streams of dry and wet nitrogen, with a total flow rate of 200 ml/min. The relative humidity (RH) was measured by a calibrated Rotronic probe (dynamic range of 1.0-100% RH), located near the sample. The weight change, (mass relaxation) of the sample as a function of % RH was constantly monitored by the microbalance (accuracy ±0.005 mg).

Some results are limits rather than exact numbers.

Take `COc1ccc(C23CCC(CN(c4cc(-c5cnn(C(C)(C)C)c5)ccn4)C(=O)[C@H]4CC[C@H](OC(=O)N5CC(O)C5)CC4)(CC2)CC3)cc1C` [Compound 1, 4-((4-(1-(tert-butyl)-1H-pyrazol-4-yl)pyridin-2-yl)((4-(4-methoxy-3-methylphenyl)bicyclo[2.2.2]octan-1-yl)methyl)carbamoyl)cyclohexyl 3-hydroxyazetidine-trans-1-carboxylate]: the concentration giving a half-maximal response (EC50) on hFXR was not above 0.01 µM.

`COc1ccc(C23CCC(CN(c4cc(-c5cnn(C(C)(C)C)c5)ccn4)C(=O)[C@H]4CC[C@H](OC(=O)N5CC(O)C5)CC4)(CC2)CC3)cc1C` [Form 1 of Compound 1, 4-((4-(1-(tert-butyl)-1H-pyrazol-4-yl)pyridin-2-yl)((4-(4-methoxy-3-methylphenyl)bicyclo[2.2.2]octan-1-yl)methyl)carbamoyl)cyclohexyl 3-hydroxyazetidine-trans-1-carboxylate]: in data set [1], the “water content at 95% RH (DVS)” value is 1.2%, the “hygroscopicity (DVS)” value is on record as “only slightly hygroscopic” and the “changes in the XRPD pattern of post-DVS samples” value (shortened to “changes in the XRPD pattern”) is given as “no significant changes”.

Turning to `COc1ccc(C23CCC(CN(c4cc(-c5cnn(C(C)(C)C)c5)ccn4)C(=O)[C@H]4CC[C@H](OC(=O)N5CC(O)C5)CC4)(CC2)CC3)cc1C` [Form 2 of Compound 1, 4-((4-(1-(tert-butyl)-1H-pyrazol-4-yl)pyridin-2-yl)((4-(4-methoxy-3-methylphenyl)bicyclo[2.2.2]octan-1-yl)methyl)carbamoyl)cyclohexyl 3-hydroxyazetidine-trans-1-carboxylate], in data set [1], the “water content at 95% RH (DVS)” value was 1.0%, the “hygroscopicity (DVS)” value is “only slightly hygroscopic” and the “changes in the XRPD pattern” value is given as “no significant changes”.

Regarding `COc1ccc(C23CCC(CN(c4cc(-c5cnn(C(C)(C)C)c5)ccn4)C(=O)[C@H]4CC[C@H](OC(=O)N5CC(O)C5)CC4)(CC2)CC3)cc1C` [Form 3 of Compound 1, 4-((4-(1-(tert-butyl)-1H-pyrazol-4-yl)pyridin-2-yl)((4-(4-methoxy-3-methylphenyl)bicyclo[2.2.2]octan-1-yl)methyl)carbamoyl)cyclohexyl 3-hydroxyazetidine-trans-1-carboxylate], in data set [1], the “water content at 95% RH (DVS)” value came out at 1.2%, the “hygroscopicity (DVS)” value is on record as “only slightly hygroscopic” and the “changes in the XRPD pattern” value is reported as “no significant changes”.

As for `COc1ccc(C23CCC(CN(c4cc(-c5cnn(C(C)(C)C)c5)ccn4)C(=O)[C@H]4CC[C@H](OC(=O)N5CC(O)C5)CC4)(CC2)CC3)cc1C` [Form 4 of Compound 1, 4-((4-(1-(tert-butyl)-1H-pyrazol-4-yl)pyridin-2-yl)((4-(4-methoxy-3-methylphenyl)bicyclo[2.2.2]octan-1-yl)methyl)carbamoyl)cyclohexyl 3-hydroxyazetidine-trans-1-carboxylate], in data set [1], the “water content at 95% RH (DVS)” value came to 1.9%, the “hygroscopicity (DVS)” value is recorded as “only slightly hygroscopic” and the “changes in the XRPD pattern” value was “no significant changes”.
